By pKi is commonly meant −log10 of the Ki, conventionally taken in molar units. Read a low pKi as a high Ki. The term pIC50 denotes the IC50 on a negative log10 scale, so that one unit is a factor of ten.

These results are taken from patent publication US20260193179A9 (priority 2018, published 2026).

pIC50, pKi: −log10 of the molar value. Where a name gives a salt, the structure may show the parent alone. Read-outs that look alike come from different tables or passages of the source.

One assay has as its target human α-thrombin (Homo sapiens, UniProt P00734). Kind of assay: Enzymatic Assay for Thrombin (Boc-VPR-AMC substrate). The assay is classed as biochemical.
Another assay addresses mMASP-2 (Mus musculus, UniProt Q91WP0). The assay is described as follows: Enzymatic assay for mMASP-2. The assay is classed as biochemical.
A further assay has as its system Lectin Pathway. The assay is described as follows: Lectin Pathway Activation Assay in Human Serum (mannan-coated ELISA, C3c detection). The assay is classed as biochemical. As to conditions: 1% human serum. The procedure: Microtiter ELISA plate was coated with mannan from Saccharomyces cerevisiae (Sigma-Aldrich, M7504) for overnight at 4° C. in coating buffer [15 mM Na2CO3, 35 mM NaHCO3]. Plate was blocked with 1% bovine serum albumin (BSA) (Sigma-Aldrich, A3294) in Tris-buffered Saline (TBS) [10 mM Tris-HCl, 140 mM NaCl] for 2 hours at room temperature. […] 100 μL of this mixture were then added to the plate and plate was incubated at 37° C. for up to an hour with gentle shaking, 200 rpm. After that, plate was washed thrice in wash buffer [TBS containing 5 mM CaCl2) and 0.05% Tween-20] and 100 μL of rabbit anti human C3c (Dako, A0062) diluted 1:5000 in wash buffer were added and incubated at 37° C. for 30 minutes.
On the technique in general: ELISA stands for enzyme-linked immunosorbent assay.

Assay [1] concerns the target MASP-2 (CCP1-CCP2-SP) (Homo sapiens, UniProt O00187). Kind of assay: Enzymatic Assay for MASP-2 (fluorogenic substrate). The assay is classed as biochemical.
For assay [2], the system named is MASP-2 (CCP1-CCP2-SP). Kind of assay: Enzymatic Assay for MASP-2 (fluorogenic substrate). The assay is classed as biochemical, human. As to conditions: selectivity for MASP-2 inhibition versus thrombin.
Where [3] appears, read: human α-thrombin, Boc-VPR-AMC substrate.

Sequence of MASP-2 (CCP1-CCP2-SP) (Homo sapiens, UniProt O00187) (O00187 445-686): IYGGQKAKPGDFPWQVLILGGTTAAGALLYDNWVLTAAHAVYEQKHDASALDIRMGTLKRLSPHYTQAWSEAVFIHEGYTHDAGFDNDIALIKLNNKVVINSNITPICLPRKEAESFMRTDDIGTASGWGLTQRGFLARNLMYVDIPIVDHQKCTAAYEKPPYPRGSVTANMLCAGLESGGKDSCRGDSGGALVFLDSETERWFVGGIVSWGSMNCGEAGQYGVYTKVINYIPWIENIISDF
Sequence of MASP-2 (CCP1-CCP2-SP) (Homo sapiens, UniProt O00187) (O00187 298-444): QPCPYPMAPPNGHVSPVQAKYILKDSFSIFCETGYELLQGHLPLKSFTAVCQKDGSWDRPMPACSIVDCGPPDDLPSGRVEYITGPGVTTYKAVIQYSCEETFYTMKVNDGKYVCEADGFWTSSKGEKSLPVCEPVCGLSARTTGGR
Sequence of mMASP-2 (Q91WP0 20-685): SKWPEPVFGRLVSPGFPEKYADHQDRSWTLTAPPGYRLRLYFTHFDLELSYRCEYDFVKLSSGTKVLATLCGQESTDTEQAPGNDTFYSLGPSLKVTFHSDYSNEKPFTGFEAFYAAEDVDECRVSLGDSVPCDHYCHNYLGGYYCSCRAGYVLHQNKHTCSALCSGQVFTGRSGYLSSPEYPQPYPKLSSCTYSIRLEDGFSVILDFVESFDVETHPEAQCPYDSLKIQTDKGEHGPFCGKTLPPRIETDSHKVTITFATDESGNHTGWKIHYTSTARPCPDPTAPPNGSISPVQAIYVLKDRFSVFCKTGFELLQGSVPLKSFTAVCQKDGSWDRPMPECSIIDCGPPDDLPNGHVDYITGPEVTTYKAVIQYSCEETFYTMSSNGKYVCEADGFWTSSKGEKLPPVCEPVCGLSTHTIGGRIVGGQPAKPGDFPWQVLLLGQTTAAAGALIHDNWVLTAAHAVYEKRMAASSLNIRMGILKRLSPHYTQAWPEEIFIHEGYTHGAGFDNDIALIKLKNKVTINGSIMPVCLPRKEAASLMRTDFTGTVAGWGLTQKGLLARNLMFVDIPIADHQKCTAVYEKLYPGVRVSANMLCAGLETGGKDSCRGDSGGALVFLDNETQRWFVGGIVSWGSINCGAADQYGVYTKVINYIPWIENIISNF

Turning to `Cc1nc(N)ccc1CNC(=O)C(C)NC(=O)[C@H]1C[C@H](c2cccc(-c3ccccc3)c2)CN1` (stereo in doubt) [compound 1359, (2R,4R)-4-([1,1′-Biphenyl]-3-yl)-N—((S)-1-(((6-amino-2-methylpyridin-3-yl)methyl)amino)-1-oxopropan-2-yl)pyrrolidine-2-carboxamide Di-trifluoroacetate salt], the pKi at human α-thrombin (setting [3]) was below 4.60.

In the case of `C[C@H](NC(=O)[C@H](N)CCc1ccccc1)C(=O)NCc1cccc(Cl)c1` [compound 1021], the pKi on mMASP-2 and on human α-thrombin was below 4.60 throughout. The compound also showed a pIC50 in the assay on Lectin Pathway below 4.30.

On mMASP-2, `C[C@H](NC(=O)[C@H]1C[C@H](c2ccccc2)CN1)C(=O)NCc1ccc(C(=N)N)cc1` [compound 1036] showed a pKi above 6.30. Besides, the pIC50 with Lectin Pathway was above 6.30.

At mMASP-2, `C[C@H](NC(=O)[C@H](N)C1Cc2ccccc2C1)C(=O)NCc1ccc2nc(N)[nH]c2c1` [compound 1059] showed a pKi above 6.30. In the assay with Lectin Pathway, this compound had a pIC50 of 5.30 to 7.30.

In turn, `C[C@H](NC(=O)[C@H](N)CCc1ccccc1)C(=O)NCc1ccc2c(N)ncnc2c1` [compound 1060, (R)-2-Amino-N—((S)-1-(((4-aminoquinazolin-7-yl)methyl)amino)-1-oxopropan-2-yl)-4-phenylbutanamide Dihydrochloride] had a pKi on MASP-2 (CCP1-CCP2-SP) [1] above 5.60.

As to `C[C@H](NC(=O)[C@H](N)CCc1cccc(Cl)c1)C(=O)NCc1ccc(C(=N)N)cc1` [compound 1081], at mMASP-2, the pKi is above 6.30. In the assay with Lectin Pathway, this compound had a pIC50 of 5.30 to 7.30.

Take `C[C@H](NC(=O)[C@@H](CCc1ccccc1)NCc1ccc(C(=O)N2CCOCC2)cc1)C(=O)NCc1ccc(C(=N)N)cc1` [compound 1153]: the pKi at human α-thrombin and at MASP-2 (CCP1-CCP2-SP) [1] was above 6.30 in each case.

Turning to `C[C@H](NC(=O)[C@H](N)CCc1ccccc1)C(=O)NCc1cc(Cl)ccc1C#N` [compound 1313, Trifluoroacetate salt], the pKi was below 4.60 at mMASP-2, 4.60 to 5.00 at human α-thrombin (setting [3]) and 5.00 to 5.60 at MASP-2 (CCP1-CCP2-SP) [1].

Regarding `C[C@H](OC(=O)[C@H](N)CCc1ccccc1)C(=O)NCc1ccc(C(=N)N)cc1` [compound 1315, (S)-1-((4-Carbamimidoylbenzyl)amino)-1-oxopropan-2-yl (R)-2-amino-4-phenylbutanoate Hydrochloride], the pKi at human α-thrombin (setting [3]) is 5.00 to 5.60; on MASP-2 (CCP1-CCP2-SP) [1], 5.60 to 6.30.

For `Cc1nc(N)ccc1CNC(=O)[C@H](C)NC(=O)[C@H]1C[C@H](Cc2ccc(-c3cccnc3)cc2)CN1` [compound 1357, (2R,4S)—N—((S)-1-(((6-Amino-2-methylpyridin-3-yl)methyl)amino)-1-oxopropan-2-yl)-4-(4-(pyridin-3-yl)benzyl)pyrrolidine-2-carboxamide Di-trifluoracetate salt], the “MASP-2 vs. thrombin selectivity” value with MASP-2 (CCP1-CCP2-SP) [2] is listed as “**** (≥100-fold)”. For the same compound, in the assay with Lectin Pathway (mannan-coated plate), the pIC50 is above 7.30.

For the compound `Cc1cc(Cl)cc(CNC(=O)[C@H](C)NC(=O)[C@H]2C[C@@H](c3ccccc3)CCN2)c1O` [compound 1365, (2R,4S)—N—((S)-1-((5-Chloro-2-hydroxy-3-methylbenzyl)amino)-1-oxopropan-2-yl)-4-phenylpiperidine-2-carboxamide], the “MASP-2 vs. thrombin selectivity” value in the assay with MASP-2 (CCP1-CCP2-SP) [2] was “**** (≥100-fold)”. In the assay with Lectin Pathway (mannan-coated plate), the pIC50 is above 7.30.

Take `Cc1nc(N)ccc1CNC(=O)[C@H](CCC(N)=O)NC(=O)[C@H](N)CCc1ccccc1` [compound 1376, (S)—N^1-((6-Amino-2-methylpyridin-3-yl)methyl)-2-((R)-2-amino-4-phenylbutanamido)pentanediamide]: the pKi is below 4.60 on mMASP-2, below 4.60 on human α-thrombin (setting [3]) and 5.60 to 6.30 at MASP-2 (CCP1-CCP2-SP) [1].

Take `Cc1nc(N)ccc1CNC(=O)[C@H](C)NC(=O)[C@H]1C[C@H](Cc2ccc(C3CCC3)cc2)CN1` [compound 1379, (2R,4S)—N—((S)-1-(((6-Amino-2-methylpyridin-3-yl)methyl)amino)-1-oxopropan-2-yl)-4-(4-cyclobutylbenzyl)pyrrolidine-2-carboxamide]: in the assay with MASP-2 (CCP1-CCP2-SP) [2], the “MASP-2 vs. thrombin selectivity” value is “**** (≥100-fold)”. Also, in the assay on Lectin Pathway (mannan-coated plate), the pIC50 was 5.30 to 6.30.

With `C[C@H](NC(=O)[C@H]1C[C@H](Cc2ccc3ccccc3c2)CN1)C(=O)NCc1cc(Cl)ccc1-n1cnnn1` [compound 1385, (2R,4S)—N—((S)-1-((5-chloro-2-(1H-tetrazol-1-yl)benzyl)amino)-1-oxopropan-2-yl)-4-(naphthalen-2-ylmethyl)pyrrolidine-2-carboxamide], in the assay on MASP-2 (CCP1-CCP2-SP) [2], the “MASP-2 vs. thrombin selectivity” value is recorded as “** (≥5.0 to <25-fold)”. This compound also showed a pIC50 in the assay with Lectin Pathway (mannan-coated plate) of 6.30 to 7.30.

Take `Cc1nc(N)ccc1CNC(=O)[C@H](C)NC(=O)[C@H]1C[C@H](Cc2ccc(N3CCCC3=O)cc2)CN1` [compound 1391, (2R,4S)—N—((S)-1-(((6-Amino-2-methylpyridin-3-yl)methyl)amino)-1-oxopropan-2-yl)-4-(4-(2-oxopyrrolidin-1-yl)benzyl)pyrrolidine-2-carboxamide]: the “MASP-2 vs. thrombin selectivity” value with MASP-2 (CCP1-CCP2-SP) [2] is “**** (≥100-fold)”. This compound had a pIC50 with Lectin Pathway (mannan-coated plate) of 5.30 to 6.30.

Turning to `C[C@H](NC(=O)[C@H]1C[C@H](Cc2ccccc2-c2ccccc2)CN1)C(=O)NCc1cnc2[nH]cc(Cl)c2c1` [compound 1393, (2R,4S)-4-([1,1′-Biphenyl]-2-ylmethyl)-N—((S)-1-(((3-chloro-1H-pyrrolo[2,3-b]pyridin-5-yl)methyl)amino)-1-oxopropan-2-yl)pyrrolidine-2-carboxamide], the “MASP-2 vs. thrombin selectivity” value in the assay on MASP-2 (CCP1-CCP2-SP) [2] is on record as “* (≥1.0 to <5.0-fold)”. This compound also had a pIC50 with Lectin Pathway (mannan-coated plate) of 6.30 to 7.30.

`COc1cc(C[C@@H]2CN[C@@H](C(=O)N[C@@H](C)C(=O)NCc3cc(Cl)ccc3-n3cnnn3)C2)cc(OC)c1` [compound 1419, (2R,4S)—N—((S)-1-((5-Chloro-2-(1H-tetrazol-1-yl)benzyl)amino)-1-oxopropan-2-yl)-4-(3,5-dimethoxybenzyl)pyrrolidine-2-carboxamide] gave a pKi at mMASP-2 above 6.30. Moreover, in the assay on MASP-2 (CCP1-CCP2-SP) [2], the “MASP-2 vs. thrombin selectivity” value is recorded as “* (≥1.0 to <5.0-fold)”.

As to `Cc1cccc(CNC(=O)[C@H](C)NC(=O)[C@H]2C[C@H](Cc3ccccc3)CN2)c1-n1ncnn1` [compound 1437, (2R,4S)-4-Benzyl-N—((S)-1-((3-methyl-2-(2H-tetrazol-2-yl)benzyl)amino)-1-oxopropan-2-yl)pyrrolidine-2-carboxamide], at mMASP-2, the pKi was 5.00 to 5.60.
